What was measured:
Assay type in all cases: cell-based
Usutu virus (USUV) = experiment: anti-Usutu virus activity (inhibition rate); conditions: for inhibition at 11 µM / inhibition at 33 µM: Usutu virus
Zika virus (ZIKV) = experiment: anti-Zika virus activity (inhibition rate); conditions: for inhibition at 11 µM / inhibition at 33 µM: Zika virus
[1] = test system: drug resistant strains of Acinetobacter baumannii; experiment: anti-drug resistant strains of Acinetobacter baumannii (inhibition zone)

| SMILES | inhibition at 11 µM (Usutu virus (USUV); Drug concentration 11 μM) [%] | inhibition at 33 µM (Usutu virus (USUV); Drug concentration 33 μM) [%] | inhibition at 11 µM (Zika virus (ZIKV); Drug concentration 11 μM) [%] | inhibition at 33 µM (Zika virus (ZIKV); Drug concentration 33 μM) [%] | other results |
| --- | --- | --- | --- | --- | --- |
| CC1(C)OC[C@]2(C)C(CC[C@@]3(C)[C@H](C[C@H]4N(NS(=O)(=O)c5ccc([N+](=O)[O-])cc5)C(=O)[C@@H]5Cc6ccccc6N54)C(=O)CC[C@@H]32)O1 (stereo partly drawn) [ZDL-41] | – | – | – | – | Anti-USUV activity (inhibition rate) (Usutu virus (USUV); Drug concentration 11 μM): +++ (+++: Complete suppression); Anti-ZIKV activity (inhibition rate) (Zika virus (ZIKV); Drug concentration 11 μM): +++ (+++: Complete suppression) |
| O=C1[C@H]2CCc3ccccc3N2C(c2ccc(O)cc2)N1Nc1ccccc1 (stereo partly drawn) [ZXD-86A] | < 0 | < 0 | < 0 | > 100 | – |
| O=C1[C@@H]2Cc3ccccc3N2[C@@H](c2ccc(O)cc2)N1NS(=O)(=O)c1ccc([N+](=O)[O-])cc1 [ZDL-39] | < 0 | < 0 | < 0 | 0 to 100 | – |
| O=C1C2CCc3ccccc3N2C(c2ccc(O)cc2)N1Nc1ccccc1 (single isomer, unassigned) [ZXD-86B] | – | – | – | – | Anti-USUV activity (inhibition rate) (Usutu virus (USUV); Drug concentration 11 μM): +++ (+++: Complete suppression); Anti-USUV activity (inhibition rate) (Usutu virus (USUV); Drug concentration 33 μM): +++ (+++: Complete suppression); Anti-ZIKV activity (inhibition rate) (Zika virus (ZIKV); Drug concentration 11 μM): + (+: Partial suppression); Anti-ZIKV activity (inhibition rate) (Zika virus (ZIKV); Drug concentration 33 μM): +++ (+++: Complete suppression) |
| O=C1[C@@H]2Cc3ccccc3CN2C(c2ccc(O)cc2)N1Nc1ccccc1 (stereo partly drawn) [ZSD-20] | – | – | – | – | Anti-USUV activity (inhibition rate) (Usutu virus (USUV); Drug concentration 11 μM): − (−: Inactive); Anti-USUV activity (inhibition rate) (Usutu virus (USUV); Drug concentration 33 μM): + (+: Partial suppression); Anti-ZIKV activity (inhibition rate) (Zika virus (ZIKV); Drug concentration 11 μM): − (−: Inactive); Anti-ZIKV activity (inhibition rate) (Zika virus (ZIKV); Drug concentration 33 μM): +++ (+++: Complete suppression) |
| O=C1C2CCc3ccccc3N2[C@@H](c2cccc3nonc23)N1Nc1ccccc1 (stereo partly drawn) [ZXD-181A] | – | – | – | – | Anti-USUV activity (inhibition rate) (Usutu virus (USUV); Drug concentration 11 μM): − (−: Inactive); Anti-USUV activity (inhibition rate) (Usutu virus (USUV); Drug concentration 33 μM): + (+: Partial suppression); Anti-ZIKV activity (inhibition rate) (Zika virus (ZIKV); Drug concentration 11 μM): +++ (+++: Complete suppression); Anti-ZIKV activity (inhibition rate) (Zika virus (ZIKV); Drug concentration 33 μM): +++ (+++: Complete suppression) |
| O=C1[C@@H]2Cc3ccccc3N2[C@@H](c2ccc([N+](=O)[O-])cc2)N1Nc1ccccc1 [ZDL-19] | < 0 | > 100 | < 0 | 0 to 100 | – |
| CC(C)(C)[Si](C)(C)Oc1ccc(C2N(Nc3ccccc3)C(=O)C3CCc4ccccc4N32)cc1 (stereo not drawn) [ZXD-131B] | 0 to 100 | – | < 0 | < 0 | – |
| O=C1C2CCCC2C(c2ccc(Cl)cc2)N1c1ccccc1 (stereo not drawn) [ZDL-62] | < 0 | > 100 | < 0 | 0 to 100 | – |
| O=C1C(c2ccccc2)C(c2ccc(O)cc2)N2CCC[C@@H]12 (stereo partly drawn) [ZXP-10] | < 0 | 0 to 100 | – | – | – |
| COc1cc(C2N(c3ccc([N+](=O)[O-])cc3)C(=O)[C@@H]3Cc4ccccc4CN23)ccc1O (stereo partly drawn) [ZSD-8] | < 0 | < 0 | 0 to 100 | > 100 | – |
| O=C(Nc1ccc([N+](=O)[O-])cc1)C1CCc2ccccc2N1 (stereo not drawn) [ZXD-53] | < 0 | < 0 | < 0 | 0 to 100 | – |
| O=C1C2CCCC2C(c2ccccc2)N1c1ccccc1 (stereo not drawn) [ZDL-60] | < 0 | 0 to 100 | < 0 | 0 to 100 | – |
| O=C1C2CCCC2C(c2ccccc2)N1c1ccc([N+](=O)[O-])cc1 (stereo not drawn) [ZDL-61] | < 0 | > 100 | < 0 | 0 to 100 | – |
| O=C1C2CCc3ccccc3N2C(c2cc3ccccc3s2)N1Nc1ccccc1 (stereo not drawn) [ZXD-178A] | – | – | – | – | Anti-USUV activity (inhibition rate) (Usutu virus (USUV); Drug concentration 11 μM): + (+: Partial suppression); Anti-ZIKV activity (inhibition rate) (Zika virus (ZIKV); Drug concentration 11 μM): +++ (+++: Complete suppression) |
| O=C(Nc1ccc([N+](=O)[O-])cc1)C1CCc2ccccc2N1C(=O)O (stereo not drawn) [ZXD-62] | – | – | – | – | Anti-USUV activity (inhibition rate) (Usutu virus (USUV); Drug concentration 11 μM): − (−: Inactive); Anti-USUV activity (inhibition rate) (Usutu virus (USUV); Drug concentration 33 μM): + (+: Partial suppression); Anti-ZIKV activity (inhibition rate) (Zika virus (ZIKV); Drug concentration 11 μM): − (−: Inactive); Anti-ZIKV activity (inhibition rate) (Zika virus (ZIKV); Drug concentration 33 μM): +++ (+++: Complete suppression) |
| O=C1C2CCc3ccccc3N2C(c2ccc(CO)cc2)N1Nc1ccccc1 (stereo not drawn) [ZXD-157B] | > 100 | – | – | – | – |

| SMILES | inhibition at 11 µM (Usutu virus (USUV); Drug concentration 11 μM) [%] | inhibition at 33 µM (Usutu virus (USUV); Drug concentration 33 μM) [%] | inhibition at 11 µM (Zika virus (ZIKV); Drug concentration 11 μM) [%] | inhibition at 33 µM (Zika virus (ZIKV); Drug concentration 33 μM) [%] | other results |
| --- | --- | --- | --- | --- | --- |
| O=C1[C@@H]2Cc3ccccc3N2[C@@H](c2ccc([N+](=O)[O-])cc2)N1NS(=O)(=O)c1ccc([N+](=O)[O-])cc1 [ZDL-38] | < 0 | 0 to 100 | < 0 | < 0 | – |
| O=C1[C@@H]2CCc3ccccc3N2[C@@H](c2ccc(O)cc2)N1c1ccc([N+](=O)[O-])cc1 [ZXD-121] | < 0 | < 0 | > 100 | – | – |
| CC(C)(C)[Si](C)(C)Oc1cccc(C2N(Nc3ccccc3)C(=O)C3CCc4ccccc4N32)c1 (stereo not drawn) [ZXD-147B] | > 100 | – | > 100 | – | – |
| COc1cc([C@H]2N(Nc3ccccc3)C(=O)[C@@H]3Cc4ccccc4N32)ccc1O [ZDL-21] | < 0 | < 0 | < 0 | 0 to 100 | – |
| COc1ccc(CC2N(Nc3ccccc3)C(=O)C3CCc4ccccc4N32)cc1OC (stereo not drawn) [ZXD-140] | < 0 | > 100 | 0 to 100 | – | – |
| O=C(NN1C(=O)[C@@H]2Cc3ccccc3N2[C@H]1c1ccc([N+](=O)[O-])cc1)c1ccc([N+](=O)[O-])cc1 [ZDL-11] | < 0 | 0 to 100 | < 0 | < 0 | – |
| O=C1C2Cc3ccccc3CN2C(c2ccc(O)c(O)c2)N1Nc1ccccc1 (stereo not drawn) [ZSD-30A] | – | – | – | – | Anti-USUV activity (inhibition rate) (Usutu virus (USUV); Drug concentration 11 μM): − (−: Inactive); Anti-USUV activity (inhibition rate) (Usutu virus (USUV); Drug concentration 33 μM): +++ (+++: Complete suppression); Anti-ZIKV activity (inhibition rate) (Zika virus (ZIKV); Drug concentration 11 μM): − (−: Inactive); Anti-ZIKV activity (inhibition rate) (Zika virus (ZIKV); Drug concentration 33 μM): − (−: Inactive) |
| O=C1[C@@H]2Cc3ccccc3CN2C(c2ccc(O)c(O)c2)N1c1ccc([N+](=O)[O-])cc1 (stereo partly drawn) [ZSD-11] | < 0 | 0 to 100 | < 0 | > 100 | – |
| O=C1[C@@H]2Cc3ccccc3CN2C(c2ccc([N+](=O)[O-])cc2)N1Nc1ccccc1 (stereo partly drawn) [ZSD-18] | < 0 | 0 to 100 | < 0 | 0 to 100 | – |
| O=C1[C@@H]2Cc3ccccc3CN2C(Cc2ccc(O)c(O)c2)N1Nc1ccccc1 (stereo partly drawn) [ZSD-36] | – | – | – | – | Anti-USUV activity (inhibition rate) (Usutu virus (USUV); Drug concentration 11 μM): − (−: Inactive); Anti-USUV activity (inhibition rate) (Usutu virus (USUV); Drug concentration 33 μM): + (+: Partial suppression); Anti-ZIKV activity (inhibition rate) (Zika virus (ZIKV); Drug concentration 11 μM): − (−: Inactive); Anti-ZIKV activity (inhibition rate) (Zika virus (ZIKV); Drug concentration 33 μM): − (−: Inactive) |
| O=C1[C@@H]2Cc3ccccc3CN2C(c2ccc(O)cc2)N1c1ccc([N+](=O)[O-])cc1 (stereo partly drawn) [ZSD-7] | – | – | – | – | Anti-USUV activity (inhibition rate) (Usutu virus (USUV); Drug concentration 11 μM): − (−: Inactive); Anti-USUV activity (inhibition rate) (Usutu virus (USUV); Drug concentration 33 μM): +++ (+++: Complete suppression); Anti-ZIKV activity (inhibition rate) (Zika virus (ZIKV); Drug concentration 11 μM): − (−: Inactive); Anti-ZIKV activity (inhibition rate) (Zika virus (ZIKV); Drug concentration 33 μM): +++ (+++: Complete suppression) |
| CC(C)(C)[Si](C)(C)OCc1ccc(C2N(Nc3ccccc3)C(=O)C3CCc4ccccc4N32)cc1 (stereo not drawn) [ZXD-156B] | > 100 | – | > 100 | – | – |
| O=C1[C@@H]2CCc3ccccc3N2C(c2ccc([N+](=O)[O-])c(O)c2)N1Nc1ccccc1 (stereo partly drawn) [ZXD-95] | < 0 | 0 to 100 | 0 to 100 | – | – |
| O=C(NNc1ccccc1)C1CCc2ccccc2N1C(=O)OCc1ccccc1 (stereo not drawn) [ZXD-51] | – | – | – | – | Anti-USUV activity (inhibition rate) (Usutu virus (USUV); Drug concentration 11 μM): − (−: Inactive); Anti-USUV activity (inhibition rate) (Usutu virus (USUV); Drug concentration 33 μM): − (−: Inactive); Anti-ZIKV activity (inhibition rate) (Zika virus (ZIKV); Drug concentration 11 μM): − (−: Inactive); Anti-ZIKV activity (inhibition rate) (Zika virus (ZIKV); Drug concentration 33 μM): + (+: Partial suppression) |
| CC(C)(C)[Si](C)(C)Oc1ccc(C2N(Cc3ccccc3)C(=O)C3CCc4ccccc4N32)cc1 (stereo not drawn) [ZXD-241B] | < 0 | > 100 | < 0 | > 100 | – |
| CC1(C)OB(c2ccc(C3N(Nc4ccccc4)C(=O)[C@@H]4Cc5ccccc5CN34)cc2)OC1(C)C (stereo partly drawn) [ZSD-32] | < 0 | 0 to 100 | < 0 | < 0 | – |
| COc1cc(CC2N(Nc3ccccc3)C(=O)C3CCCCN32)ccc1O (single isomer, unassigned) [ZKD-14A] | – | – | – | – | inhibition zone, diameter ([1]; resistant strain of Acinetobacter baumannii no. 16): 68 mm; inhibition zone, diameter ([1]; resistant strain of Acinetobacter baumannii no. 17): 68 mm; inhibition zone, diameter ([1]; resistant strain of Acinetobacter baumannii no. 18): 45 mm; inhibition zone, diameter ([1]; resistant strain of Acinetobacter baumannii no. 19): 64 mm; inhibition zone, diameter ([1]; resistant strain of Acinetobacter baumannii no. 20): 68 mm |

— US20220235057A1, “CYCLIC FORMYL AND CYCLIC KETONE COMPOUNDS, PREPARATION METHOD THEREFOR, AND PHARMACEUTICAL USE” (priority 2019, published 2022)
